{"source": "patent US20200209238A1", "about": "“OPTIMIZING DIAGNOSTICS FOR GALACTOFURANOSE CONTAINING ANTIGENS” (The Johns Hopkins University, priority 2017, published 2020)", "origin": "cited, not measured here", "molecular_target": "T1, hINTL-1 (Homo sapiens, UniProt Q8WWA0)", "T1 construct": "from tissue; host or cells: human urine", "T1 sequence (Q8WWA0 19-298)": "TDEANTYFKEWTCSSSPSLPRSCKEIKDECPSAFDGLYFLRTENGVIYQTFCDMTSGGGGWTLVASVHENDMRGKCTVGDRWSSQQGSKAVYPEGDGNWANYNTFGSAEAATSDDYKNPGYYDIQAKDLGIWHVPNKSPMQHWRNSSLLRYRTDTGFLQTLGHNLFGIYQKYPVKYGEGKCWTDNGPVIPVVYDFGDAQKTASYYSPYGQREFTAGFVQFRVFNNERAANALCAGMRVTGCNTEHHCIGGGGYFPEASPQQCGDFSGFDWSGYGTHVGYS", "data": [{"compound": "CC(=O)N[C@H]1[C@H]([C@H](O)[C@H](O)CO)OC(O)(C(=O)O)C[C@@H]1O", "note": "(stereo partly shown) [N-Acetylneuraminic acid (Neu5Ac), N-Acetylneuraminic acid]", "values": [{"measurement": "binding to hIntL-1", "value": "does not bind"}]}]}
